Key:
[1] = molecular target: ROCK2 (Homo sapiens (Human), UniProt O75116); experiment: ROCK2 kinase inhibition assay (peptide phosphorylation, LABCHIP 3000); type: biochemical; conditions: 7 μM ATP, 2.5 nM ROCK2, 3 hours at 25° C.
[2] = test system: K562 cell line; experiment: Cell viability assay ([…]-GLO), K562; type: cell-based; conditions: Homo sapiens; K562 (does not express ITD-FLT3), 72 hours treatment
Description: Cell viability in the presence of varying concentrations of the above listed compounds at different time points was used to assess cytotoxicity and the effect of the compounds on cell proliferation.
Cell viability was measured by the […]-GlO® cell viability assay from Promega (Madison, Wis.). The […]-GlO Luminescent Cell Viability Assay is a homogeneous method to determine the number of viable cells in culture based on quantitation of the ATP present, which signals the presence of metabolically active cells. Following treatment, […]-GlO® is added to treatment wells and incubated at 37° C. Luminescence values were measured at using a Molecular Devices Spectramax microplate reader.
Cells were grown to 70% confluency, trypsinized, counted, and seeded in 96 well flat-bottom plates at a final concentration of 2.5×10^3-5×10^3 cells/well (Day 0). Cells were allowed to incubate in growth media for 24 hours. Treatment with the test agents or standard agents began on Day 1 and continued for 72 hours. At the 72-hour time point, treatment containing media was removed. Viable cell numbers were quantified by the […]-GLO® cell viability assay as described above. Results from these studies were used to calculate an IC50 value (concentration of drug that inhibits cell growth by 50 percent of control) for each compound.
For single agent and combination studies, data from each experiment was collected and expressed as % Cell Growth using the following calculation: % Cell Growth=(ftest/fvehicle)×100
Where ftest is the luminescence of the tested sample, and fvehicle is the luminescence of the vehicle in which the drug is dissolved. Dose response graphs and IC50 values were generated using Prism 6 software (GraphPad) using the following equation: Y=(Top−Bottom)/(1+10^((logIC50-X)−HillSlope))
Where X is the logarithm of the concentration and Y is the response. Y starts at the Bottom and goes to the Top with a sigmoid shape.
The experiments also evaluated the selectivity of the compounds for inhibiting growth of cancer cells carrying a mutation in the Flt3 gene. The MV411 cell line expresses the mutant allele of Flt3 with internal tandem duplications (ITD) of the gene. See Quentmeier et al., “FLT3 Mutations in Acute Myeloid Leukemia Cell Lines,” Leukemia 17(1), 2003, 120-124. […] See Grafone et al., “Monitoring of FLT3 Phosphorylation Status and Its Response to Drugs By Flow Cytometry in AML Blast Cells,” Hematol Oncol. 26(3), 2008, 159-166.

[3] = test system: MV411 cell line; experiment: Cell viability assay ([…]-GLO), MV411; type: cell-based; conditions: for IC50: Homo sapiens, MV4-11, MV411 (ITD-FLT3+), 72 hours treatment; for FLT3-ITD+ Selectivity (K562/MV411): ratio K562/MV411
Description: Cell viability was measured by the […] -GlO® cell viability assay from Promega (Madison, Wis.). The […] -GlO Luminescent Cell Viability Assay is a homogeneous method to determine the number of viable cells in culture based on quantitation of the ATP present, which signals the presence of metabolically active cells. Following treatment, […] -GlO® is added to treatment wells and incubated at 37° C. Luminescence values were measured at using a Molecular Devices Spectramax microplate reader.

Sequence of ROCK2 (O75116 whole entry, species assumed): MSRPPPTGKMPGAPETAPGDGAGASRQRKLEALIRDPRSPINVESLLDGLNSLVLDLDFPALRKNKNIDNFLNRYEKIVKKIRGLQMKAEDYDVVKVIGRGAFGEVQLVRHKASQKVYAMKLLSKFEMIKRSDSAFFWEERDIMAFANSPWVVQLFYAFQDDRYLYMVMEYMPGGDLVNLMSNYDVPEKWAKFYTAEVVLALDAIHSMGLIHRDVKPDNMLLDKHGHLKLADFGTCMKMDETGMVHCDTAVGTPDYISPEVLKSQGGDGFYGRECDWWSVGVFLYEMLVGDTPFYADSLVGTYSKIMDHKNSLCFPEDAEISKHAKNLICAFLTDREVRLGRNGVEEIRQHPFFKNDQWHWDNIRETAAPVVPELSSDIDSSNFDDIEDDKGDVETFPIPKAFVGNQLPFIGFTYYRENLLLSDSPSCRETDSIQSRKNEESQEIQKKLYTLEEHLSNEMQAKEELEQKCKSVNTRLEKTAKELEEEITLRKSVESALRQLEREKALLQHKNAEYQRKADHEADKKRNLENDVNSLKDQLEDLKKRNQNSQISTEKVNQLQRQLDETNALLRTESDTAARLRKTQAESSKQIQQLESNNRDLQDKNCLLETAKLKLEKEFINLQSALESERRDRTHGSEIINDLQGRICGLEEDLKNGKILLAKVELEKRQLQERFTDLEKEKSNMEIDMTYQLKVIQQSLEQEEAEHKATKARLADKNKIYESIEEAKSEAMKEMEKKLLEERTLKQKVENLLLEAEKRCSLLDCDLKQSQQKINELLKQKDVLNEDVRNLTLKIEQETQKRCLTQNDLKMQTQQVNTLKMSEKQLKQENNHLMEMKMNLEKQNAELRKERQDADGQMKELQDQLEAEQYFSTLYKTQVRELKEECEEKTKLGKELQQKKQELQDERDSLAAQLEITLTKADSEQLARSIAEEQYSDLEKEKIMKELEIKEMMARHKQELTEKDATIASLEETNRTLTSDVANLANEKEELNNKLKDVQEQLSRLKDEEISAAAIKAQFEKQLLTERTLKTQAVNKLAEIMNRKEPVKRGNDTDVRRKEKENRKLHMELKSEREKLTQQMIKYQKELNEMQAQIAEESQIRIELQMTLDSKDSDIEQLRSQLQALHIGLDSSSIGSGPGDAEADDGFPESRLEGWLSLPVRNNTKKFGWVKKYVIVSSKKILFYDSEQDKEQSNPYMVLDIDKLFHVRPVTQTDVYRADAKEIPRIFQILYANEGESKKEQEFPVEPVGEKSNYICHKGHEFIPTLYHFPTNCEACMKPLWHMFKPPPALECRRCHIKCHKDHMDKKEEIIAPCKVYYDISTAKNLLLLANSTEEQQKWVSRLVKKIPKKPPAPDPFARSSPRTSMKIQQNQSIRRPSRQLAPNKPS

| SMILES | IC50 [1] | IC50 [2] | IC50 [3] | FLT3-ITD+ Selectivity (K562/MV411) [3] |
| --- | --- | --- | --- | --- |
| C[C@@H](NC(=O)c1ccc(-c2ccncc2)cc1)c1cccc(C(=O)Nc2ccc3c(c2)CN(C)CC3)c1 [Compound 6] | 1.2 nM | 8000 nM | 200 nM | 40 |
| CN1Cc2ccc(NC(=O)c3cccc([C@@H](CO)NC(=O)c4ccc(-c5ccncc5)cc4)c3)cc2C1 [Compound 8] | 1.3 nM | – | – | – |
| O=C(Nc1ccccc1)c1cccc([C@@H](CO)NC(=O)c2ccc(-c3ccncc3)cc2)c1 [Compound 9] | 1.7 nM | 35000 nM | 800 nM | 47 |
| CNC(=O)c1cccc([C@@H](CO)NC(=O)c2ccc(-c3ccncc3)cc2)c1 [Compound 11] | 2.7 nM | > 100000 nM | 12300 nM | >8 |
| O=C(NC1CC1)c1cccc([C@@H](CO)NC(=O)c2ccc(-c3ccncc3)cc2)c1 [Compound 12] | 1.8 nM | > 100000 nM | 540 nM | >187 |
| O=C(NCc1ccccc1)c1cccc([C@@H](CO)NC(=O)c2ccc(-c3ccncc3)cc2)c1 [Compound 13] | 1.7 nM | 27000 nM | 3000 nM | 9 |
| CN(C)Cc1cccc(NC(=O)c2cccc([C@@H](CO)NC(=O)c3ccc(-c4ccncc4)cc3)c2)c1 [Compound 14] | 1.6 nM | 48000 nM | 90 nM | 532 |
| CC(NC(=O)c1ccc(-c2ccncc2)cc1)c1cccc(OCC(=O)NC2CC2)c1 (stereo not drawn) [Compound 15] | 9 nM | > 100000 nM | 4000 nM | >25 |
| CC(NC(=O)c1ccc(-c2ccncc2)cc1)c1cccc(OCC(=O)Nc2ccc3c(c2)CN(C)CC3)c1 (stereo not drawn) [Compound 16] | 3.6 nM | 30000 nM | 1500 nM | 20 |
| COc1ccc(C(=O)N[C@H](C)c2cccc(C(=O)Nc3nc4c(s3)CN(C)CC4)c2)cc1C [Compound 17] | 22.5 nM | > 100000 nM | 13500 nM | >7 |
| COc1ccc(C(=O)N[C@H](CO)c2cccc(C(=O)Nc3nc4c(s3)CN(C)CC4)c2)cc1C [Compound 18] | 19.6 nM | > 100000 nM | 15900 nM | >6 |
| COc1ccc(C(=O)N[C@H](CO)c2cccc(C(=O)Nc3ccc4c(c3)CN(C)CC4)c2)cc1C [Compound 19] | – | 44000 nM | 13200 nM | 3 |
| CN(C)CCc1ccc(NC(=O)c2cccc([C@@H](CO)NC(=O)c3ccc(-c4ccncc4)cc3)c2)cc1 [Compound 20] | 1.2 nM | 16000 nM | 10 nM | 1585 |
| O=C(NCC1CCOCC1)c1cccc([C@@H](CO)NC(=O)c2ccc(-c3ccncc3)cc2)c1 [Compound 22] | 0.57 nM | > 100000 nM | 3800 nM | >27 |
| CN1CCC(CNC(=O)c2cccc([C@@H](CO)NC(=O)c3ccc(-c4ccncc4)cc3)c2)CC1 [Compound 23] | 0.3 nM | 56000 nM | 90 nM | 632 |
| COc1cccc(CN(CCN(C)C)C(=O)c2cccc([C@@H](CO)NC(=O)c3ccc(-c4ccncc4)cc3)c2)c1 [Compound 25] | – | – | 18900 nM | – |
| CN1CCc2ccc(NC(=O)c3cccc([C@@H](CO)NC(=O)c4ccc(-c5ccncc5)cc4)c3)cc2C1=O [Compound 27] | 0.39 nM | 25000 nM | 4400 nM | 6 |
| CN1CCOc2ccc(NC(=O)c3cccc([C@@H](CO)NC(=O)c4ccc(-c5ccncc5)cc4)c3)cc2C1 [Compound 29] | – | – | 65100 nM | – |
| CN(C)Cc1cccc(CNC(=O)c2cccc([C@@H](CO)NC(=O)c3ccc(-c4ccncc4)cc3)c2)c1 [Compound 33] | 0.38 nM | – | – | – |
| COCCOc1cccc(CNC(=O)c2cccc([C@@H](CO)NC(=O)c3ccc(-c4ccncc4)cc3)c2)c1 [Compound 34] | 0.69 nM | – | – | – |
| CN1CCc2ccc(NC(=O)c3cccc([C@@H](CO)NC(=O)c4ccc(-c5ccncc5)cn4)c3)cc2C1 [Compound 37] | 3 nM | – | 1700 nM | – |
| CN(C(=O)c1cccc([C@@H](CO)NC(=O)c2ccc(-c3ccncc3)cc2)c1)C1CC1 [Compound 38] | 56 nM | – | 20000 nM | – |

| SMILES | IC50 [1] | IC50 [2] | IC50 [3] | FLT3-ITD+ Selectivity (K562/MV411) [3] |
| --- | --- | --- | --- | --- |
| C[C@@H](NC(=O)c1ccc(-c2ccncc2)cc1)c1cccc(C(=O)NCc2ccc(CN(C)C)cc2)c1 [Compound 39] | 0.3 nM | 9400 nM | 10 nM | 940 |
| C[C@@H](NC(=O)c1ccc(-c2ccncc2)cc1)c1cccc(C(=O)NCC2CCC(F)(F)CC2)c1 [Compound 40] | 0.41 nM | – | 3400 nM | – |
| CN1CCc2ccc(NC(=O)c3cccc([C@@H](CO)NC(=O)c4cccc(-c5ccncc5)c4)c3)cc2C1 [Compound 41] | 6.53 nM | – | – | – |
| CN1CCc2ccc(NC(=O)c3cccc([C@@H](CO)NC(=O)c4cccc(-c5ccn[nH]5)c4)c3)cc2C1 [Compound 42] | 72.6 nM | – | – | – |
| CN1CCc2ccc(NC(=O)c3cccc([C@@H](CO)NC(=O)c4ccc(-c5ccn[nH]5)cc4)c3)cc2C1 [Compound 43] | 9.3 nM | – | – | – |
| CN1CCc2ccc(NC(=O)c3cccc([C@@H](CO)NC(=O)c4ccc(-c5cccnc5)cc4)c3)cc2C1 [Compound 44] | 240 nM | – | – | – |
| CN(C(=O)c1ccc(-c2ccncc2)cc1)[C@H](CO)c1cccc(C(=O)NC2CCCC2)c1 [Compound 45] | 257 nM | – | – | – |
| O=C(NC1CCCC1)c1cccc([C@@H](CO)NC(=O)c2ccc(-c3cn[nH]c3)cc2)c1 [Compound 46] | 1.88 nM | 11000 nM | 90 nM | 122 |
| CN(C)Cc1ccc(CNC(=O)c2cccc([C@@H](CO)NC(=O)c3ccc(-c4ccncc4)cn3)c2)cc1 [Compound 47] | 0.54 nM | 36000 nM | 100 nM | 360 |
| O=C(NC1CCC1)c1cccc([C@@H](CO)NC(=O)c2ccc(-c3ccncc3)cc2)c1 [Compound 48] | 1.01 nM | > 100000 nM | 440 nM | >230 |
| C[C@@H](NC(=O)c1ccc(-c2ccncc2)cc1)c1cccc(C(=O)NCC2CCN(C)CC2)c1 [Compound 49] | 0.3 nM | > 100000 nM | 20 nM | >5050 |
| CN1CCC(NC(=O)c2cccc([C@@H](CO)NC(=O)c3ccc(-c4ccncc4)cc3)c2)CC1 [Compound 50] | 0.33 nM | > 100000 nM | 100 nM | >1010 |
| O=C(NC1CCCC1)c1cccc([C@@H](CO)NC(=O)c2ccc(-c3ccncc3)cn2)c1 [Compound 51] | 4.38 nM | > 100000 nM | 1450 nM | >70 |
| CN(C)C1CCC(NC(=O)c2cccc([C@@H](CO)NC(=O)c3ccc(-c4ccncc4)cc3)c2)CC1 (stereo partly drawn) [Compound 52] | 0.61 nM | > 100000 nM | 120 nM | >842 |
| O=C(NC1CCC(F)(F)CC1)c1cccc([C@@H](CO)NC(=O)c2ccc(-c3ccncc3)cc2)c1 [Compound 53] | 0.66 nM | > 100000 nM | 220 nM | >459 |
| O=C(NC1CCN(C2CC2)CC1)c1cccc([C@@H](CO)NC(=O)c2ccc(-c3ccncc3)cc2)c1 [Compound 54] | 0.54 nM | > 100000 nM | 70 nM | >1443 |
| COc1ccc(C(=O)N[C@H](C)c2cccc(C(=O)NCC3CCN(C(C)C)CC3)c2)cc1C [Compound 68] | 104 nM | – | – | – |
| O=C(NC1CCCC1)c1cccc([C@@H](CO)NC(=O)c2cccc(-c3cn[nH]c3)c2)c1 [Compound 83] | – | > 100000 nM | 3600 nM | >28 |
| C[C@H](c1cccc(C(=O)NC2CCCC2)c1)N(CCN(C)C)C(=O)c1ccc(-c2ccncc2)cc1 [Compound 98] | 0.23 nM | – | – | – |
| O=C(NC1CCCC1)c1cccc([C@@H](CO)NC(=O)c2cccc(-c3cn[nH]c3)c2)c1 [Compound 106] | 20 nM | – | – | – |
| Cc1c[nH]c2nccc(Oc3c(F)cc(Nc4cc(Cl)nc(N)n4)cc3F)c12 [Compound A, reference compound] | – | 800 nM | 700 nM | – |

From patent US10738007B2, “Amide compounds as kinase inhibitors, compositions and methods of treatment” (TRANSLATIONAL DRUG DEVELOPMENT, LLC, priority 2016, dated 2020)
